Laboratory results taken from PMC10879876, “Activatable prodrug for controlled release of an antimicrobial peptide via the proteases overexpressed in Candida albicans and Porphyromonas gingivalis” (Theranostics, 2024).
Where no end group is shown, it is not given here.

Legend:
[1] = tested on: C. albicans; test: Kirby-Bauer disk diffusion, C. albicans; format: cell-based, Candida albicans; conditions: disks treated with 1 mM, five-day incubation at 30 °C
[2] = tested on: HEK293T; test: XTT viability assay, HEK293T; format: cell-based, human
[3] = tested on: HEK293T; test: Confocal microscopy of membrane integrity, HEK293T; format: cell-based, human; conditions: 100 µM prodrug, 3 hours at 37 °C, CellBrite Fix Membrane Stain 640
Procedure: (§1) standard curve: ∆PLCy5.5 vs. [fully-digested FRET probe]. Data were then fitted to the following Michaelis-Menten equation: ! = !!"#[…]. […]
(§2) amino acid sequences were provided. PEP-FOLD then employs a physics-based energy function […]
(§3) structures for the given peptide sequence. […]
(§4) dynamics sampling approach. […]
(§5) energy and the agreement with experimental or theoretical constraints. The algorithm selects the […]
(§6) allowed to grow overnight. […]
(§7) peptides for 3 hours at 37 °C. Next, cells were washed three times with sterile PBS. Mammalian […]
(§8) PBS (Thermo Scientific) at room temperature for 20 min. Cells were imaged by a confocal […]
(§9) Transmission Electron Microscopy. […]
(§10) by air drying overnight. Cellular morphology was conducted using the same microscope. Here, […]
(§11) nanomedicine lab (UCSD NanoEngineering). Cells were cultured in complete Dulbecco’s […]
(§12) Streptomycin), at 37 °C and 5% CO2. Passages were conducted with 0.25% Trypsin EDTA before […]
(§13) signal that is proportional to H2O2 concentration. Cells were seeded into 96-well plates (Corning, […]

[4] = tested on: P. gingivalis; test: Kirby-Bauer disk diffusion, P. gingivalis; format: cell-based, Porphyromonas gingivalis; conditions: disks treated with 1 mM, five-day incubation at 37 °C
[5] = tested on: C. albicans; test: ROS H2O2 luminescence assay, C. albicans; format: cell-based, Candida albicans; conditions: 10 μM, 4 hours, ROS-Glo H2O2 assay, versus cells + PBS
Procedure: (§14) The assay uses an H2O2 substrate that reacts directly with H2O2 to generate a luciferin precursor [55]. It was predicted that exposure of the microorganisms to the prodrug would lead to alterations in their normal physiological processes thus triggering a stress response and inducing the generation of ROS. […] This is consistent with previous studies wherein ROS production is credited as the secondary event of the fungicidal mechanism of P-113 [56]. […]
as §7
(§15) PBS (Thermo Scientific) at room temperature for 20 min. […]
(§16) Cells were cultured in complete Dulbecco’s
as §12, §13
(§17) then incubated for 4 hours at 37 °C before 100µl of ROS-Glo™ Detection Solution was added to each well. Finally, the plate was incubated for 20 minutes at room temperature and the relative luminescence was recorded using a plate reader (Synergy H1, BioTek). […]
(§18) LoB = meanblank + 1.645 (SDblank) […]
(§19) LoD = LoB + 1.645 (SDlow concentration sample).
(§20) Statistical Analysis. Statistical analysis was conducted using GraphPad Prism 10. […]
(§21) A P-value of < 0.05 was […]
(§22) considered significant. […]

[6] = tested on: P. gingivalis; test: ROS H2O2 luminescence assay, P. gingivalis; format: cell-based, Porphyromonas gingivalis; conditions: 10 μM, 4 hours, ROS-Glo H2O2 assay, versus cells + PBS
Procedure: as §14, §7, §15, §16, §12, §13, §17, §18, §19, §20, §21, §22

[7] = tested on: C. albicans; parameters: method as in PMID 27458227; conditions: previous work; cited from earlier work
[8] = biological target: T1, RgpB (Porphyromonas gingivalis, UniProt P95493); test: Enzyme digestion by recombinant RgpB (MALDI-TOF / ESI-MS); format: biochemical; conditions: 37 °C
T1 construct: gift from Professor Anthony O'Donoghue (UC San Diego)
T1 sequence (P95493 230-736): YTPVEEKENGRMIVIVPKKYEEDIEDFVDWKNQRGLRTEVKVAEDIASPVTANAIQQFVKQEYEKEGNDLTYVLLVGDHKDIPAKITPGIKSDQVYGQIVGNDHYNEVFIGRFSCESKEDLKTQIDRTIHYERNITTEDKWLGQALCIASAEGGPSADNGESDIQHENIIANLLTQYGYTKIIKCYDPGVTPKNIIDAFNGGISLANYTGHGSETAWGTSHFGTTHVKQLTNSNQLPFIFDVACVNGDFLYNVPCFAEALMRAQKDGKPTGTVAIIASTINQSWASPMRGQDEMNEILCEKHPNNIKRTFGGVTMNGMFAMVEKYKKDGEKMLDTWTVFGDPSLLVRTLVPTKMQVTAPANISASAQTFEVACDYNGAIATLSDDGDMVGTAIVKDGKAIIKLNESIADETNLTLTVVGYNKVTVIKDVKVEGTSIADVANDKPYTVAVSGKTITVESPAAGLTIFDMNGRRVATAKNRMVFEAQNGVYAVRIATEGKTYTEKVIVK
Procedure: (§23) Probe activation, kinetics, and cytotoxicity.
(§24) Enzyme digestion. SAP9 and RgpB cleavage were both performed with 455 µM of peptide. […] Then, 10 µL of the enzyme at the appropriate concentration was added. An optimized final concentration of 300 nM for SAP9 and 200 nM for RgpB were used. The solution was incubated at 37 °C for 3 hours for RgpB and SAP9 for optimal cleavage.

[9] = biological target: T2, SAP9 (Candida albicans, UniProt Q59SU1); test: Enzyme digestion by recombinant SAP9 (MALDI-TOF / ESI-MS); format: biochemical; conditions: 37 °C; for Cleavage / degradation by SAP9: 300 nM recombinant SAP9, 3 h, 9.5 mM MES, 2.7 mM KCl, 140 mM NaCl pH 5.5, 455 µM peptide, MALDI-TOF (ESI-MS for P-113)
T2 construct: purchased MyBioSource (San Diego, CA)
T2 sequence (Q59SU1 18-544): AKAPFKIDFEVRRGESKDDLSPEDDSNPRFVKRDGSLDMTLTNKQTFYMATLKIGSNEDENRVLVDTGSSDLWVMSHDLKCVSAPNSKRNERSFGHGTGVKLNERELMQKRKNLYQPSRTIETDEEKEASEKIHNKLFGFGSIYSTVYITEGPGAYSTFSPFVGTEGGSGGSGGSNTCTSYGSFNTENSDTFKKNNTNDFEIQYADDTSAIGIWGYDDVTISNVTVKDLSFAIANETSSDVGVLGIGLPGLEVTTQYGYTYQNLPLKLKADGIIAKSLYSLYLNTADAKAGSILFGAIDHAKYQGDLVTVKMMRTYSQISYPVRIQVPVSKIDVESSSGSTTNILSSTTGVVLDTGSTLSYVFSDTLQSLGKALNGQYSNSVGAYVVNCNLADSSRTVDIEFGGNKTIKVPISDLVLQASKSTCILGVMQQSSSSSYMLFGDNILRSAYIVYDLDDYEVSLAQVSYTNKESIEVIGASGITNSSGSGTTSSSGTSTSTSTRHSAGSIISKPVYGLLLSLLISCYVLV
Procedure: as §23, §24

[10] = tested on: P. gingivalis; test: XTT viability assay, P. gingivalis; format: cell-based, Porphyromonas gingivalis; conditions: 10 µM
[11] = tested on: C. albicans; test: TEM of cell morphology, C. albicans; format: cell-based, Candida albicans; conditions: 3 hours at 37 °C; S1 at 40 µM
Text: (§25) Finally, the target microorganisms were also imaged using transmission electron microscopy (TEM) to visualize the cell morphology. Figure 3C presents C. albicans cells. On the left, the untreated cells show a rigid and intact membrane in contrast to the […] (+ S1) showing decreased cell density and clear destruction of the membranes. This obvious change in morphology is seen at other magnifications (Supplementary Figure S19). […]
as §1, §2, §3, §4, §5, §6, §7, §8, §9, §10, §11, §12

[12] = tested on: C. albicans; test: XTT viability assay, C. albicans; format: cell-based, Candida albicans; conditions: intact peptide, 10 µM, 3 h at 37 °C, absorbance 490 nm, sextuplet measurements
Procedure: Fungal culture. In situ culturing C. albicans (ATCC 90028) from lyophilized stock (KWIK-STIK, VWR) was conducted on Sabouraud dextrose agar plates (Sigma-Aldrich) 2 to 5 days in advance of the antifungal assay. The plates were then incubated at 30°C and pearl-like colonies were observed, indicative of C. albicans. Single colonies were then extracted with sterilized inoculation loops and inoculated in 3 mL yeast extract peptone dextrose (YEPD) medium (2% Bacto^TMpeptone, 2% Dextrose, 1% Yeast extract in H2O) using Biological Safety Level 2 (BSL-2) practices and procedures. Note, the broth was autoclaved before use and stored at room temperature. […] The culture was finally diluted 1:100 and the OD600 was measured wherein OD600 = 0.5 a.u. correlates to approximately 1 × 10^6 cells/ mL in 100 µL RPMI-1640 medium with L-glutamine and 3-(N-morpholino)propane sulfonic acid (MOPS) without sodium bicarbonate, pH 7.0. […]
Viability assay. The percent toxicity was calculated using an XTT (2,3-bis-(2-methoxy-4-nitro-5-sulfophenyl)-2H-tetrazolium-5-carboxanilide) colorimetric assay (Biotium) wherein viable cells form an orange formazan product upon reduction. […] The absorbance of the formazan dye was measured at a wavelength of 490 nm using a microplate reader. Here, the absorbance is directly proportional to the number of viable cells present in each well. […]

[13] = tested on: P. gingivalis; test: TEM of cell morphology, P. gingivalis; format: cell-based, Porphyromonas gingivalis; conditions: 3 hours at 37 °C; G1 at 40 µM
Text: as §25, §1, §2, §3, §4, §5, §6, §7, §8, §9, §10, §11, §12

[14] = tested on: F. nucleatum; test: XTT viability assay, F. nucleatum; format: cell-based, Fusobacterium nucleatum; conditions: intact peptide

For OC(Cn1cncn1)(Cn1cncn1)c1ccc(F)cc1F [FLZ, fluconazole, reference compound], the “Growth inhibition in disk diffusion test” value [1] was “Obvious growth inhibition”.
In the case of AKRHHGYKRKFHGGAGPRIDGGDDDDDD-NH2 [G1], the “Toxicity to HEK293T compared to P-113” value ([2]; intact prodrug, 10 µM, XTT) is reported as “decreased toxicity by nearly half” and the “Membrane integrity by confocal microscopy” value [3] is reported as “membrane remained intact”.
In the case of “Ac-AKRHHGYKRKFH-NH2 [P-113, reference compound]”, the “Growth inhibition in disk diffusion test” value [4] is reported as “Colony growth is inhibited”, the “H2O2 ROS generation, relative luminescence” value [5] is reported as “six-fold increase” and the “H2O2 ROS generation, relative luminescence” value [6] is reported as “six-fold increase”. For the same molecule, the MIC [7] was 10 µM, the “MIC for HEK293T relative to MIC for the oral microorganisms” value [2] was roughly 100 times and the “Cleavage / degradation by RgpB” value ([8]; 200 nM recombinant RgpB, 3 h, 0.2 M Tris HCl pH 7.6, 5 mM CaCl2, 100 mM NaCl, 40 mM TCEP, 455 µM peptide, MALDI-TOF (ESI-MS for P-113)) was “no degradation”. For the same molecule, the “Growth inhibition in disk diffusion test” value [1] was “Obvious growth inhibition” and the “Cleavage / degradation by SAP9” value [9] was “no degradation”.
In the case of “Ac-AKRHHGYKRKFHGGVKKKDVVDGGDDDDDD-NH2 [S1]”, the “Growth inhibition in disk diffusion test” value [4] is reported as “No growth inhibition”, the “H2O2 ROS generation, relative luminescence” value [5] is reported as “six-fold increase” and the “Change of percent toxicity upon cleavage” value ([10]; S1 pre-cleaved in vitro by 300 nM recombinant SAP9 versus intact (30%)) is reported as “nearly doubled”. The Percent toxicity ([10]; intact peptide, 3 h at 37 °C, absorbance 490 nm, sextuplet measurements) was 30%, the “Cell morphology by TEM” value [11] was “decreased cell density and cell rupturing” and the “H2O2 ROS generation, relative luminescence” value [6] was “little luminescence”. For the same molecule, the Percent toxicity [12] was 70%, the “Cleavage by RgpB, S1 and G1 co-incubated” value ([8]; joint solution of S1 and G1, RgpB 300nM, 3 hours, MALDI-TOF) was “S1 remaining intact” and the “Cell morphology by TEM” value [13] was “intact cell structures”. For the same molecule, the “Inhibited growth relative to the positive control treatment (FLZ)” value ([1]; disk diffusion, diameter relative to fluconazole) was “approximately 70%”, the “Growth inhibition in disk diffusion test” value [1] was “Obvious growth inhibition” and the “Cleavage / degradation by SAP9” value [9] was “obvious mass peaks corresponding to the cleaved fragments”. The “Cleavage by SAP9, S1 and G1 co-incubated” value ([9]; joint solution of S1 and G1, SAP9 300 nM, 3 hours, MALDI-TOF) was “S1 converting to S1 fragment”, the Percent toxicity ([14]; 10 µM, 3 h at 37 °C) was 15% and the “Percent toxicity, highest over the titration” value ([14]; all tested concentrations) was no more than 50%.
